Laboratory results: ChEMBL document CHEMBL1201862, “PubChem BioAssay data set” (2004)
Active and inactive are the calls of the source.

Experiments:
[1] = molecular target: T1, Long-chain-fatty-acid--AMP ligase FadD28 (Mycobacterium tuberculosis, UniProt P9WQ59); test: Fluorescence polarization aasay to screen for inhibitors that compete for the binding of FadD28 to a bisubstrate Measured in Biochemical System Using Plate Reader - 2147-01_Inhibitor_Dose_CherryPick_Activity.; assay type: functional, Mycobacterium tuberculosis H37Rv
T1 sequence (P9WQ59 whole entry): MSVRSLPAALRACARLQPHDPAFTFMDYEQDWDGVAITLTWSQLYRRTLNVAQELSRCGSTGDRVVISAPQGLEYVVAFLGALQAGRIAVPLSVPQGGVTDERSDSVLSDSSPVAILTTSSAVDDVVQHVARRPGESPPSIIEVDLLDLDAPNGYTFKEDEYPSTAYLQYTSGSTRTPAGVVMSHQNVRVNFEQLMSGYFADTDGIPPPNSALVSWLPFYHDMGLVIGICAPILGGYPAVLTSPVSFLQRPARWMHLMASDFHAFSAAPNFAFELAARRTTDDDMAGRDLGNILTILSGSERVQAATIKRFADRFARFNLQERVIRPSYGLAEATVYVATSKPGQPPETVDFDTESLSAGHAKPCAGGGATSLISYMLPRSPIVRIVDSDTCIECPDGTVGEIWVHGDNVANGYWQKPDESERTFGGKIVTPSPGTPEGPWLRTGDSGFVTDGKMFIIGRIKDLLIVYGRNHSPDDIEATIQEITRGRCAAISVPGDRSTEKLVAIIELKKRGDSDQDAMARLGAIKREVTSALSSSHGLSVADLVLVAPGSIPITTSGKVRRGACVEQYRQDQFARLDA

[2] = HEp-2 cell cytotoxicity, dose response, cytotoxicity control for RSV inhibitor project, HTS (AID 2410); assay type: functional; conditions: human respiratory syncytial virus
[3] = molecular target: Dual specificity tyrosine-phosphorylation-regulated kinase 1A (Rattus norvegicus, UniProt Q63470); assay type: biochemical, Homo sapiens
Streptokinase A = molecular target: T2, Streptokinase A (Streptococcus pyogenes serotype M1, UniProt P10520); test: S. pyogenes streptokinase expression inhibitors, potency, dose response, plasminogen activation absorbance, OD405 (AID 1914); assay type: functional, Streptococcus pyogenes M1 GAS;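 note: secreted streptokinase activity via plasminogen activation per viability signal from cell pellet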
T2 sequence (P10520 whole entry): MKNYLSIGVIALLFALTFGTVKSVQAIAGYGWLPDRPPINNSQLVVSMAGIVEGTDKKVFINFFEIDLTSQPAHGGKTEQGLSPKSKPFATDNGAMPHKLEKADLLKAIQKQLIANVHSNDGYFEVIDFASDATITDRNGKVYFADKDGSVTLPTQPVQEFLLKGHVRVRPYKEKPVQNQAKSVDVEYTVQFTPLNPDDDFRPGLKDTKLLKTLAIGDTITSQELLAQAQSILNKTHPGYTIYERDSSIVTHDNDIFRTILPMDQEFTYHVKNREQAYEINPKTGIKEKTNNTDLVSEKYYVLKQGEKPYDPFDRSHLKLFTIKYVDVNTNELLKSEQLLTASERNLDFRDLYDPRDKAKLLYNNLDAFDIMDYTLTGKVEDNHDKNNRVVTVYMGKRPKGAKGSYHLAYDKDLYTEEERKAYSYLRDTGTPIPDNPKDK

Streptococcus = test: Group A Streptococcus viability loss, dose response, counter-screen for streptokinase expression inhibitor project, luminescence, BacTiterGlo (AID 1915); assay type: functional, organism-based;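 note: potency for reduction of bacterial viability or growth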
[4] = test system: Streptococcus sp. 'group A'; test: growth inhibition of control SK(-) GAS strain, dose response, counter-screen for streptokinase expression inhibitor project, luminescence, kanamycin, BacTiterGlo, confirmation (AID 1900); assay type: functional, organism-based
Fatty acid synthase [5] = molecular target: T3, Fatty acid synthase (Homo sapiens, UniProt P49327); test: FAS thioesterase domain inhibitors, dose response, biochemical, endpoint fluorescence intensity, uHTS hits (AID 624327); assay type: functional;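 note: fluorescence from hydrolysis of an O-methyl fluorescein acyl ester substrate by the enzyme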
T3 sequence (P49327 whole entry, the tested form may be a part): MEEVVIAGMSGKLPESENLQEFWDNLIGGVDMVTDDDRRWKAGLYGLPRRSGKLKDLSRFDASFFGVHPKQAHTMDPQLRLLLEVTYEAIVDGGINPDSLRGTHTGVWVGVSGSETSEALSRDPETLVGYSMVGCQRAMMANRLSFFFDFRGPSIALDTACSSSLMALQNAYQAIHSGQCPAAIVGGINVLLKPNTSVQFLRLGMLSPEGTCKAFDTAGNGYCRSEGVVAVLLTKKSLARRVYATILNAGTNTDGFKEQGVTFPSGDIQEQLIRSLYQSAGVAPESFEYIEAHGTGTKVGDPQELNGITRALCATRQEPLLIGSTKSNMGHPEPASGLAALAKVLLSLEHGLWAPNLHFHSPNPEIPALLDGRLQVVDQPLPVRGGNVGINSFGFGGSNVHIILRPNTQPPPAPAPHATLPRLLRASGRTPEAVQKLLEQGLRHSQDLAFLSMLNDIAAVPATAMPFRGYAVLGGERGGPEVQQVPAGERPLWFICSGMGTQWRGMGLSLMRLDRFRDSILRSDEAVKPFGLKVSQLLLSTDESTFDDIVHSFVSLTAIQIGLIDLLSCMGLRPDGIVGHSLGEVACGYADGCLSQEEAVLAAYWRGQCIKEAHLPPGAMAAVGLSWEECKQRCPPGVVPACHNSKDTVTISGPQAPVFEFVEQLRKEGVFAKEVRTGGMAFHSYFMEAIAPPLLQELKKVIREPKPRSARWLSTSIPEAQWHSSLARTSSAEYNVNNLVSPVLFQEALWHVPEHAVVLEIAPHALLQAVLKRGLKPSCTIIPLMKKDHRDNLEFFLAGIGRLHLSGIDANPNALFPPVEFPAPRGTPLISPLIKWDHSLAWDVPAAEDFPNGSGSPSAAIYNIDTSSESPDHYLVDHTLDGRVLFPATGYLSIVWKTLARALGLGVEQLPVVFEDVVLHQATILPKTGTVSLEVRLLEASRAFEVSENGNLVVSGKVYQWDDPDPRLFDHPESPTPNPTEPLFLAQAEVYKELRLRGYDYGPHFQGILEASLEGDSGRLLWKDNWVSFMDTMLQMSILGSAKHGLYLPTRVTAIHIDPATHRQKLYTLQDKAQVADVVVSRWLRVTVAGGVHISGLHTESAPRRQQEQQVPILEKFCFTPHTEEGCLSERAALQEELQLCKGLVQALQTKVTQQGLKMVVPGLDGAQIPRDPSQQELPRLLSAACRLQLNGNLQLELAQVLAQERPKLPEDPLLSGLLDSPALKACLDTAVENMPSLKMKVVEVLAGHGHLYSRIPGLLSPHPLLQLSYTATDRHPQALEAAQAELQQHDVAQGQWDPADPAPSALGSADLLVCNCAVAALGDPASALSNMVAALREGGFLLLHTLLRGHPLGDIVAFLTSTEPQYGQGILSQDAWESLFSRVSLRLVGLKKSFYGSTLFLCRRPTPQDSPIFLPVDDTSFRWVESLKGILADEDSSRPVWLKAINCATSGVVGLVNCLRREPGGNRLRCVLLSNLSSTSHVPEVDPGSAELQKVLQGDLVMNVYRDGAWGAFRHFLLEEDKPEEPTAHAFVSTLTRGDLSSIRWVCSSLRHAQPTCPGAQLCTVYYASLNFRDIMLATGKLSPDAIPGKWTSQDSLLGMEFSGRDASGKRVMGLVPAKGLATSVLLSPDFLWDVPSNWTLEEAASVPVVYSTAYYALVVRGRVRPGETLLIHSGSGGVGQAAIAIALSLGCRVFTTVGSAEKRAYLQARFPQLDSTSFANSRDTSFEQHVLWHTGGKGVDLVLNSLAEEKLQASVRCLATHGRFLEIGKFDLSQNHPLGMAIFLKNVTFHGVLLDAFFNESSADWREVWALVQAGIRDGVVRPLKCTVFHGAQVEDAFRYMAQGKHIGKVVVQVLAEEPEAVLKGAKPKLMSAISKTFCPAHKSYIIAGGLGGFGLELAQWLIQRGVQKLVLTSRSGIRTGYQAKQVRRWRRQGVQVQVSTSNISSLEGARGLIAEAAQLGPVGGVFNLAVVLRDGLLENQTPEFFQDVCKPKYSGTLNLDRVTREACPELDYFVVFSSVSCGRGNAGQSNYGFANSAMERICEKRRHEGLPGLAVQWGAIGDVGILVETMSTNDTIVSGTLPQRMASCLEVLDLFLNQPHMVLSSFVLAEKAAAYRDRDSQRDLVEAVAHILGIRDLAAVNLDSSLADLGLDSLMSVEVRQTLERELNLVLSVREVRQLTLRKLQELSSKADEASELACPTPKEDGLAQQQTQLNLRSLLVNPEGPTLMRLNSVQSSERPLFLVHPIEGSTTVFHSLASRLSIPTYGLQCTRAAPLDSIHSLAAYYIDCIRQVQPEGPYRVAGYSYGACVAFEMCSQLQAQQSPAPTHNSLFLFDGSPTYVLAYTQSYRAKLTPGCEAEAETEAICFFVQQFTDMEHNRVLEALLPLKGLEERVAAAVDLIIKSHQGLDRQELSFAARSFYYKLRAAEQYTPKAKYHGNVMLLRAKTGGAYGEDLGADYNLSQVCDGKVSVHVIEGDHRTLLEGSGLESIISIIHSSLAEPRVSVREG

Fatty acid synthase [6] = molecular target: T3, Fatty acid synthase; test: FAS thioesterase domain inhibitors, dose response, biochemical, kinetic fluorescence intensity (AID 624326); assay type: functional;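 note: rate of fluorescence rise from hydrolysis of a fluorogenic O-methyl fluorescein ester substrate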
Protein RecA = molecular target: T4, Protein RecA (Mycobacterium tuberculosis, UniProt P9WHJ3); test: Fluorescence Cell-Free Homogeneous Dose Retest to Identify Inhibitors of RecA-Intein Splicing Activity. [Related pubchem assays (depositor defined):AID2097, AID2223, AID489010, AID492950]; assay type: functional
T4 sequence (P9WHJ3 whole entry): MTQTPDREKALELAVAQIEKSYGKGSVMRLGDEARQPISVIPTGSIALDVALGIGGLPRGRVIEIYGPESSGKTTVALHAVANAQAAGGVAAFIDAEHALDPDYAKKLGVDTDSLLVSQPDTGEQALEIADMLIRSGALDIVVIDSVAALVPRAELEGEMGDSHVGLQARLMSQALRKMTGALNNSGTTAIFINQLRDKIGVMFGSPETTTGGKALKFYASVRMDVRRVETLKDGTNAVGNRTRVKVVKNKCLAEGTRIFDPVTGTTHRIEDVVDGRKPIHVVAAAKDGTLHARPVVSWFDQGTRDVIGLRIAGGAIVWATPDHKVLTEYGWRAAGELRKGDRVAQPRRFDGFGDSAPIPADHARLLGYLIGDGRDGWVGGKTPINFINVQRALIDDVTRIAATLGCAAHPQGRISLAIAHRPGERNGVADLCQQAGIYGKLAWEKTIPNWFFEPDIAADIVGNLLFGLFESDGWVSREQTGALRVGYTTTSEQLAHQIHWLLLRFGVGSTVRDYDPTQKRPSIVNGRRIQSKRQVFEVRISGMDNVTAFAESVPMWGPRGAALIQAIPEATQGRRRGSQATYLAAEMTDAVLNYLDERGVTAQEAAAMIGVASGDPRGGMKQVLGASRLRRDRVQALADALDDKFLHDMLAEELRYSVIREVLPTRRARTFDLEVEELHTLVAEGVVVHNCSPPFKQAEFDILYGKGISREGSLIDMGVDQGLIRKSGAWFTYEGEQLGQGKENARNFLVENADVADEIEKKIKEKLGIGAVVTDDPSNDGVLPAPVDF

[7] = molecular target: T5, Type-1 angiotensin II receptor (Homo sapiens, UniProt P30556); test: AT1 receptor antagonists, dose response, selectivity assay for APJ receptor antagonist project, cell-based, uHTS hits (AID 463214); assay type: functional;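 note: antagonist potency against angiotensin II stimulated AT1 response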
T5 sequence (P30556 whole entry): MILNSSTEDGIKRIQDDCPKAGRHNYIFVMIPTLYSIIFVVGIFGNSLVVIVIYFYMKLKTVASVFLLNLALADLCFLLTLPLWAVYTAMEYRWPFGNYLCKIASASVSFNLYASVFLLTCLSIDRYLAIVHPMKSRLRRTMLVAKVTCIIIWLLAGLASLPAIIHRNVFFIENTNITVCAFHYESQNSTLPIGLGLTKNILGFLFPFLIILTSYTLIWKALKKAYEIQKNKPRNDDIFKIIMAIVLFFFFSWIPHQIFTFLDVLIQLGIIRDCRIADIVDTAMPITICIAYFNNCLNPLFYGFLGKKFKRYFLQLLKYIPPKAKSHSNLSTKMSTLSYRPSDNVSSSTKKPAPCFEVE

Beta-galactosidase = Beta-galactosidase (Escherichia coli, UniProt Q8VNN2); test: PubChem AID 485352; assay type: functional
Chain of Beta-galactosidase (Q8VNN2 whole entry): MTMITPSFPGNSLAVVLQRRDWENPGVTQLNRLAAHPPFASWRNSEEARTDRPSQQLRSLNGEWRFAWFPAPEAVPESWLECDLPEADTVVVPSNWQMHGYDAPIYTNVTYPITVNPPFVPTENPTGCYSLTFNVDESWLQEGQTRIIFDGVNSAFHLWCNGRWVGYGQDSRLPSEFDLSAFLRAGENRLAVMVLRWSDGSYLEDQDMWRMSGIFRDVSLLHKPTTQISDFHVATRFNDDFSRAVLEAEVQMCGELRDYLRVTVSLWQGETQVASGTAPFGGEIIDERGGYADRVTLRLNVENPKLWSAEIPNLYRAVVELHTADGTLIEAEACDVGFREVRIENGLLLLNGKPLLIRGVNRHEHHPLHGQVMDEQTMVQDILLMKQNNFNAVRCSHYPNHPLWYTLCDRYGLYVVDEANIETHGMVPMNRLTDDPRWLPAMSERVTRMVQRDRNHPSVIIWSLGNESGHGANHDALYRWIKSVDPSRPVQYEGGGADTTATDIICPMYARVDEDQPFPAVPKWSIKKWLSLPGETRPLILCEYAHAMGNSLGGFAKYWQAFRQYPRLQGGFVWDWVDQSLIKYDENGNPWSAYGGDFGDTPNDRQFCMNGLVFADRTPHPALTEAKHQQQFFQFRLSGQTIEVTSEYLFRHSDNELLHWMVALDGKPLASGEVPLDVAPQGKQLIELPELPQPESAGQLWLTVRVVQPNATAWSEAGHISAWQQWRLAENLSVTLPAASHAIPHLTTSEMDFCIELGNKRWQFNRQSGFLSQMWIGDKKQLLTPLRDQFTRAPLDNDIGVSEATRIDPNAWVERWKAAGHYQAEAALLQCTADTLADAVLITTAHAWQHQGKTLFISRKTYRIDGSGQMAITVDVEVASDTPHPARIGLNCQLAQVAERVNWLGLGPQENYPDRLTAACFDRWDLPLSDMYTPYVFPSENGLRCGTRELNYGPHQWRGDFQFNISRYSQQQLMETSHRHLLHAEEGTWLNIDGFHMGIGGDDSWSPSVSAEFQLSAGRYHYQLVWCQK

[8] = molecular target: T6, Replicative DNA helicase DnaB (Mycobacterium tuberculosis, UniProt P9WMR3); test: DnaB intein splicing inhibitors, dose response, biochemical, cell-free fluorescence (AID 449749); assay type: functional
T6 sequence (P9WMR3 whole entry): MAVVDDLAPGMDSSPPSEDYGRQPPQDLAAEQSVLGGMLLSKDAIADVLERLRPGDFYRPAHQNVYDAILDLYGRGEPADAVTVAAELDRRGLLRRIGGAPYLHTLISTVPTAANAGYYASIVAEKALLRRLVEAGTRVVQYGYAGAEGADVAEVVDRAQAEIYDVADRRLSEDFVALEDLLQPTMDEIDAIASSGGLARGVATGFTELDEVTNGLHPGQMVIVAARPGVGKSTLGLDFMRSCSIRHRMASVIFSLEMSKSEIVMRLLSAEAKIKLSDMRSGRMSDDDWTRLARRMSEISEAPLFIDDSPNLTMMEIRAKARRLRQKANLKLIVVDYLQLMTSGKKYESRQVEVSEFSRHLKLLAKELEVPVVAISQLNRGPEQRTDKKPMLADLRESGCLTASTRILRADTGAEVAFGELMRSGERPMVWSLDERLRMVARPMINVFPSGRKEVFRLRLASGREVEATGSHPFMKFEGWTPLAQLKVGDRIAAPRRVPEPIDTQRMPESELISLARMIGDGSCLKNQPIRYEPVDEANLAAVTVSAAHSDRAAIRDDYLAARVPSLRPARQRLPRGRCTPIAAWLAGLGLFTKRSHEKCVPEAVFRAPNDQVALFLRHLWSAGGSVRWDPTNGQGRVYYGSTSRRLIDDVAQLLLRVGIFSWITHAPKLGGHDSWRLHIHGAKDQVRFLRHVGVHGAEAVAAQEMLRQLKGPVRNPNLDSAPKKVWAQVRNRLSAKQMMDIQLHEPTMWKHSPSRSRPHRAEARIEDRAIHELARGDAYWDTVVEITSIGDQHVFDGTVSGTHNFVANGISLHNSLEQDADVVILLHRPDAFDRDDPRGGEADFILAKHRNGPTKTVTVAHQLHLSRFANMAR

[9] = cytotoxicity in HEK-293T cells, dose response, cytotoxicity control for TCR NF-kB inhibitor project, luminescence, T-cell screen hits (AID 489026); assay type: functional, cell-based;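 note: cells exposed to compound about 14 hours before the viability readout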

SMILES: COc1ccc2c(c1)C(=NNc1ccc(C(=O)O)cc1)c1cc(OC)ccc1-2
- AC50 [1]: 88 µM (active)
- CC50 [2]: 13.7 µM (active)
- AC50 [3]: 0.02 µM (active)
- EC50 (Streptokinase A): > 150 µM (not active)
- EC50 (Streptococcus): 12.4 µM (active)
- IC50 (cells): 10.8 µM (active)
- EC50 [4]: 6.28 µM (active)

SMILES: CCC(C(=O)NC1CCCCC1)n1c(SCc2ccccc2F)nc2ccncc21 (stereo not drawn)
- AC50 [1]: > 100 µM (inactive)

SMILES: O=C(CN1C(=O)S/C(=C\c2cc(Cl)c(O)c(Cl)c2)C1=O)Nc1ccccc1
- AC50 [1]: 3.49 µM (active)

SMILES: O=C(N/C(=C\c1ccc(Br)cc1)C(=O)N1CCOCC1)c1ccc([N+](=O)[O-])cc1
- IC50 (Fatty acid synthase [5]): 0.262 µM (active)
- IC50 (Fatty acid synthase [6]): 0.286 µM (active)

SMILES: CCCSc1cc(NCCOC(=O)CCC)c([N+](=O)[O-])c2nonc12
- EC50 (Protein RecA): 4.48 µM (active)
- CC50 [2]: 14.8 µM (active)
- IC50 (Fatty acid synthase [5]): 16.3 µM (active)
- IC50 [7]: 11 µM (active)
- EC50 (Beta-galactosidase): > 40 µM (inactive)
- AC50 [8]: 55 µM (active)
- IC50 (Fatty acid synthase [6]): 16.5 µM (active)

SMILES: COc1ccc(OC)c(COC(=O)c2cc([N+](=O)[O-])ccc2N2CCOCC2)c1
- IC50 [9]: > 80 µM (inactive)
- IC50 (Fatty acid synthase [5]): 11.4 µM (active)
- IC50 (Fatty acid synthase [6]): 15.4 µM (active)

SMILES: Cc1cccc2cc(/C=N/Nc3ccc(C(=O)O)cc3)c(Cl)nc12
- IC50 (Fatty acid synthase [5]): 27.4 µM (inactive)
- IC50 (Fatty acid synthase [6]): 18.3 µM (active)
